Results from US10828317B2, “Method of treating bacterial infections” (priority 2016, dated 2020).
Read-outs that look alike come from different tables or passages of the source.

Columns and labels:
A. baumannii EN007 = experiment: MIC, WT (EN007 = EN0007); type: cell-based, Acinetobacter baumannii
S. epidermidis EN0456 = experiment: MIC; type: cell-based, Staphylococcus epidermidis; conditions: Staphylococcus epidermidis, read-out: MIC
[1] = tested on: A. pittii or A. nosocomialis EN0180; experiment: MIC; type: cell-based, Acinetobacter pittii or nosocomialis; conditions: read-out: MIC
Citrobacter sp. EN0465 = experiment: MIC; type: cell-based; conditions: Citrobacter, read-out: MIC
K. pneumoniae EN006 = experiment: MIC, WT (EN006 = EN0006, ATCC 13883); type: cell-based, Klebsiella pneumoniae
E. coli EN0235 = experiment: microbe, parasite or virus in culture; type: cell-based; conditions: Escherichia coli
K. pneumoniae EN0140 = experiment: MIC, AmpC (DHA-1); type: cell-based; conditions: Klebsiella pneumoniae, read-out: MIC
E. coli EN012 = experiment: MIC, WT; type: cell-based, Escherichia coli; conditions: Escherichia coli, EN012, combination FdUrd+trimethoprim+uridine, Table 8; read-out: MIC
M. luteus EN0455 = experiment: MIC; type: cell-based, Micrococcus luteus; conditions: Micrococcus luteus, read-out: MIC
P. mirabilis EN0457 = experiment: MIC; type: cell-based, Proteus mirabilis; conditions: Proteus mirabilis, read-out: MIC
E. coli EN002 = experiment: MIC, DtoIC; type: cell-based, Escherichia coli; conditions: Escherichia coli, read-out: MIC
K. pneumoniae EN0145 = experiment: MIC, KPC-2; type: cell-based; conditions: Klebsiella pneumoniae, read-out: MIC
E. coli B EN0458 = experiment: MIC; type: cell-based, Escherichia coli B; conditions: Escherichia coli, read-out: MIC
E. coli EN0136 = experiment: MIC, ESBL (CTX-M-2); type: cell-based; conditions: Escherichia coli, read-out: MIC
P. aeruginosa EN004 = experiment: MIC, WT (EN004 = EN0004); type: cell-based, Pseudomonas aeruginosa
S. sonnei APV00908 = experiment: MIC and antibiogram; type: cell-based; conditions: Shigella sonnei, Table 22A
E. coli EN0137 = experiment: MIC, ESBL (CTX-M-15); type: cell-based; conditions: Escherichia coli, read-out: MIC
E. coli EN0134 = experiment: MIC, AmpC (CMY-4); type: cell-based; conditions: Escherichia coli, read-out: MIC
[2] = combination AZT+trimethoprim+uridine, Table 17B
[3] = combination FdUrd+trimethoprim+uridine, Table 19
[4] = combination didanosine+trimethoprim+uridine, Table 20

## COc1cc(Cc2cnc(N)nc2N)cc(OC)c1OC [Trimethoprim, trimethoprim]
A. baumannii EN007; [2]
  MIC: >4 µg/mL
A. baumannii EN007; [3]
  MIC: >8 µg/mL
A. baumannii EN007; [4]
  MIC: >8 µg/mL
S. epidermidis EN0456; EN0456, Combination 1 AZT+trimethoprim+uridine, Table 16
  MIC: 0.064 µg/mL
S. epidermidis EN0456; EN0456, Combination 2 AZT+trimethoprim+uridine+thymidine, Table 16
  MIC: 2 µg/mL
S. epidermidis EN0456; EN0456, combination AZT+trimethoprim+uridine, Table 6
  MIC: 0.06 µg/mL
S. epidermidis EN0456; EN0456, combination FdUrd+trimethoprim+uridine, Table 8
  MIC: < 0.016 µg/mL
[1]; Combination 1 AZT+trimethoprim+uridine, Table 16
  MIC: > 4 µg/mL
[1]; Combination 2 AZT+trimethoprim+uridine+thymidine, Table 16
  MIC: > 4 µg/mL
[1]; combination AZT+trimethoprim+uridine, Table 6
  MIC: > 4 µg/mL
[1]; combination FdUrd+trimethoprim+uridine, Table 8
  MIC: 8 µg/mL
[1]; combination didanosine+trimethoprim+uridine, Table 10
  MIC: > 8 µg/mL
Citrobacter sp. EN0465; SP.EN0465, Combination 1 AZT+trimethoprim+uridine, Table 16
  MIC: > 4 µg/mL
Citrobacter sp. EN0465; SP.EN0465, Combination 2 AZT+trimethoprim+uridine+thymidine, Table 16
  MIC: > 4 µg/mL
Citrobacter sp. EN0465; SP.EN0465, combination AZT+trimethoprim+uridine, Table 6
  MIC: > 4 µg/mL
Citrobacter sp. EN0465; SP.EN0465, combination FdUrd+trimethoprim+uridine, Table 8
  MIC: > 8 µg/mL
Citrobacter sp. EN0465; SP.EN0465, combination didanosine+trimethoprim+uridine, Table 10
  MIC: > 8 µg/mL
K. pneumoniae EN006; Klebsiella pneumoniae, EN006, Combination 2 AZT+trimethoprim+uridine+thymidine, Table 16, read-out: MIC
  MIC: 0.5 µg/mL
K. pneumoniae EN006; Klebsiella pneumoniae, EN006, combination AZT+trimethoprim+uridine, Table 6, read-out: MIC
  MIC: 0.06 µg/mL
K. pneumoniae EN006; Klebsiella pneumoniae, EN006, combination FdUrd+trimethoprim+uridine, Table 8, read-out: MIC
  MIC: 1 µg/mL
K. pneumoniae EN006; Klebsiella pneumoniae, EN006, combination didanosine+trimethoprim+uridine, Table 10, read-out: MIC
  MIC: 1 µg/mL
K. pneumoniae EN006; [2]
  MIC: 0.25 µg/mL
K. pneumoniae EN006; [3]
  MIC: 1 µg/mL
K. pneumoniae EN006; [4]
  MIC: 1 µg/mL
E. coli EN0235; EN0235, combination FdUrd+trimethoprim+uridine, Table 19
  MIC: 0.125 µg/mL
E. coli EN0235; EN0235, combination didanosine+trimethoprim+uridine, Table 20
  MIC: 0.25 µg/mL
K. pneumoniae EN0140; EN0140, combination AZT+trimethoprim+uridine, Table 17B
  MIC: 1 µg/mL
K. pneumoniae EN0140; EN0140, combination FdUrd+trimethoprim+uridine, Table 19
  MIC: > 8 µg/mL
K. pneumoniae EN0140; EN0140, combination didanosine+trimethoprim+uridine, Table 20
  MIC: > 8 µg/mL
E. coli EN012
  MIC: 0.064 µg/mL
M. luteus EN0455; EN0455, Combination 1 AZT+trimethoprim+uridine, Table 16
  MIC: 2 µg/mL
M. luteus EN0455; EN0455, Combination 2 AZT+trimethoprim+uridine+thymidine, Table 16
  MIC: > 4 µg/mL
M. luteus EN0455; EN0455, combination AZT+trimethoprim+uridine, Table 6
  MIC: 2 µg/mL
M. luteus EN0455; EN0455, combination FdUrd+trimethoprim+uridine, Table 8
  MIC: 4 µg/mL
M. luteus EN0455; EN0455, combination didanosine+trimethoprim+uridine, Table 10
  MIC: 4 µg/mL
P. mirabilis EN0457; EN0457, Combination 1 AZT+trimethoprim+uridine, Table 16
  MIC: 2 µg/mL
P. mirabilis EN0457; EN0457, Combination 2 AZT+trimethoprim+uridine+thymidine, Table 16
  MIC: > 4 µg/mL
P. mirabilis EN0457; EN0457, combination AZT+trimethoprim+uridine, Table 6
  MIC: 2 µg/mL
P. mirabilis EN0457; EN0457, combination FdUrd+trimethoprim+uridine, Table 8
  MIC: 2 µg/mL
P. mirabilis EN0457; EN0457, combination didanosine+trimethoprim+uridine, Table 10
  MIC: 4 µg/mL
E. coli EN002; EN002, Combination 1 AZT+trimethoprim+uridine, Table 16
  MIC: 0.016 µg/mL
E. coli EN002; EN002, combination AZT+trimethoprim+uridine, Table 6
  MIC: 0.016 µg/mL
E. coli EN002; EN002, combination FdUrd+trimethoprim+uridine, Table 8
  MIC: 0.064 µg/mL
E. coli EN002; EN002, combination didanosine+trimethoprim+uridine, Table 10
  MIC: 0.064 µg/mL
K. pneumoniae EN0145; EN0145, combination AZT+trimethoprim+uridine, Table 17B
  MIC: 2 µg/mL
K. pneumoniae EN0145; EN0145, combination FdUrd+trimethoprim+uridine, Table 19
  MIC: > 8 µg/mL
K. pneumoniae EN0145; EN0145, combination didanosine+trimethoprim+uridine, Table 20
  MIC: > 8 µg/mL
E. coli B EN0458; BEN0458, combination FdUrd+trimethoprim+uridine, Table 8
  MIC: 0.064 µg/mL
E. coli B EN0458; BEN0458, combination didanosine+trimethoprim+uridine, Table 10
  MIC: 0.064 µg/mL
E. coli EN0136; EN0136, combination FdUrd+trimethoprim+uridine, Table 19
  MIC: 2 µg/mL
E. coli EN0136; EN0136, combination didanosine+trimethoprim+uridine, Table 20
  MIC: > 8 µg/mL
P. aeruginosa EN004; Pseudomonas aeruginosa, EN004, Combination 1 AZT+trimethoprim+uridine, Table 16, read-out: MIC
  MIC: > 4 µg/mL
P. aeruginosa EN004; Pseudomonas aeruginosa, EN004, Combination 2 AZT+trimethoprim+uridine+thymidine, Table 16, read-out: MIC
  MIC: > 4 µg/mL
P. aeruginosa EN004; Pseudomonas aeruginosa, EN004, combination AZT+trimethoprim+uridine, Table 6, read-out: MIC
  MIC: > 4 µg/mL
P. aeruginosa EN004; Pseudomonas aeruginosa, EN004, combination FdUrd+trimethoprim+uridine, Table 8, read-out: MIC
  MIC: > 8 µg/mL
P. aeruginosa EN004; Pseudomonas aeruginosa, EN004, combination didanosine+trimethoprim+uridine, Table 10, read-out: MIC
  MIC: > 8 µg/mL
P. aeruginosa EN004; [2]
  MIC: >4 µg/mL
P. aeruginosa EN004; [3]
  MIC: >8 µg/mL
P. aeruginosa EN004; [4]
  MIC: >8 µg/mL
S. sonnei APV00908; APV00908, combination AZT+trimethoprim+uridine
  MIC: 0.03 µg/mL
S. sonnei APV00908; APV00908, combination FdUrd+trimethoprim+uridine
  MIC: > 8 µg/mL
E. coli EN0137; EN0137, combination FdUrd+trimethoprim+uridine, Table 19
  MIC: > 8 µg/mL
E. coli EN0137; EN0137, combination didanosine+trimethoprim+uridine, Table 20
  MIC: > 8 µg/mL
E. coli EN0134; EN0134, combination FdUrd+trimethoprim+uridine, Table 19
  MIC: > 8 µg/mL
E. coli EN0134; EN0134, combination didanosine+trimethoprim+uridine, Table 20
  MIC: > 8 µg/mL
